Drawing on patent publication US7151105B2, “Inhibitors of Hepatitis C virus RNA-dependent RNA polymerase, and compositions and treatments using the same” (Agouron Pharmaceuticals, Inc., priority 2004, dated 2006), this text covers IC50 for 20 compounds.

In this experiment the target is T1, Recombinant HCV polymerase (Hepatitis C virus genotype 1b, UniProt P26663).
T1 construct: Recombinant HCV polymerase was tested for its ability to perform primer/template-directed transcription
T1 sequence (P26663 2420-3010): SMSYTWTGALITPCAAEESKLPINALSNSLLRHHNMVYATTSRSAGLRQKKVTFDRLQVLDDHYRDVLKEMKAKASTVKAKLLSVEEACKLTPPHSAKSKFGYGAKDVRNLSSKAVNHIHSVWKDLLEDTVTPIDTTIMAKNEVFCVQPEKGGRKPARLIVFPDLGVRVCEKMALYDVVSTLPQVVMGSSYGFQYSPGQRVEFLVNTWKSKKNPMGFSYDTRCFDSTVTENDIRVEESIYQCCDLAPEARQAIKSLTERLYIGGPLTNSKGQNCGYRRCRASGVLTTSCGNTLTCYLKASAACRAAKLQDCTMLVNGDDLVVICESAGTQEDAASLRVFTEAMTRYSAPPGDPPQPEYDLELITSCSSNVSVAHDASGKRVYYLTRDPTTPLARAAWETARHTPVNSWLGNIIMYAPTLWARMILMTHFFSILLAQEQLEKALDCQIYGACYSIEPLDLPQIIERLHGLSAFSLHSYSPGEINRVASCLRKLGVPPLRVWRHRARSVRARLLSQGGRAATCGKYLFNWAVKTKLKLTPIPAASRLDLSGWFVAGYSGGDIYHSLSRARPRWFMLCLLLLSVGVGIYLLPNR
As to the kind of experiment: biochemical. Conditions: inhibition of polymerase-directed transcription; 30 min at 30° C; 30 nM enzyme; cpm data in triplicate. The method in brief: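 Primer/template-directed RNA synthesis by 2.5 pmol HCV polymerase on poly(rC)300/biotin-dG12 with 1 μM GTP plus α-32P-GTP, in pH 7.2 Tris buffer with 10 mM MgCl2, for 30 min at 30 °C. Products were filter-captured and counted, with 1% DMSO final. IC50 was fitted from triplicate cpm; percent inhibition was reported where IC50 was impractical.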
As to `CCOc1cc(O)c(CC)cc1CCC1(C2CCCC2)CC(O)=C(Cc2nc3ncc(C)cn3n2)C(=O)O1` (single isomer, unassigned) [A(58), 6-Cyclopentyl-6-[2-(2-ethoxy-5-ethyl-4-hydroxyphenyl)ethyl]-4-hydroxy-3-[(6-methyl[1,2,4]triazolo[1,5-a]pyrimidin-2-yl)methyl]-5,6-dihydro-2H-pyran-2-one], the IC50 – broadly, the concentration that gives 50% inhibition – came out at 0.001 µM.
For the compound `CCc1cc(CCC2(C3CCCC3)CC(O)=C(Cc3nc4nc(C)cc(C)n4n3)C(=O)O2)ccc1CN1CCOCC1` (racemic) [A(123), 6-cyclopentyl-3-[(5,7-dimethyl[1,2,4]triazolo[1,5-a]pyrimidin-2-yl)methyl]-6-{2-[3-ethyl-4-(morpholin-4-ylmethyl)phenyl]ethyl}-4-hydroxy-5,6-dihydro-2H-pyran-2-one], the half-inhibitory concentration (IC50) turned out to be 0.039 µM.
Then `CCn1nc(C)c(CC2=C(O)CC(CCc3ccc(OC(C)C)c(Cl)c3)(C3CCCC3)OC2=O)c1C` (centres unmarked) [B(19), 6-[2-(3-chloro-4-isopropoxyphenyl)ethyl]-6-cyclopentyl-3-[(1-ethyl-3,5-dimethyl-1H-pyrazol-4-yl)methyl]-4-hydroxy-5,6-dihydro-2H-pyran-2-one], with 1.1 µM; and `CCc1cc(CCC2(C3CCCC3)CC(O)=C(Cc3nc4nc(C)cc(C)n4n3)C(=O)O2)ccc1-c1ncco1` (single isomer, unassigned; enantiomer 1) [A(138), Enantiomer 1 of 6-Cyclopentyl-3-[(5,7-dimethyl[1,2,4]triazolo[1,5-a]pyrimidin-2-yl)methyl]-6-{2-[3-ethyl-4-(1,3-oxazol-2-yl)phenyl]ethyl}-4-hydroxy-5,6-dihydro-2H-pyran-2-one], with 0.01 µM.
Then `Cc1nn(C)c(C)c1CC1=C(O)CC(CCc2ccc(C(C)(C)C#N)c(Cl)c2)(C2CCCC2)OC1=O` (centres unmarked) [B(25), 2-[2-Chloro-4-(2-{2-cyclopentyl-4-hydroxy-6-oxo-5-[(1,3,5-trimethyl-1H-pyrazol-4-yl)methyl]-3,6-dihydro-2H-pyran-2-yl}ethyl)phenyl]-2-methylpropanenitrile], with 0.033 µM; and `Cc1cc(C)n2nc(CC3=C(O)CC(CCc4ccc(C(C)(C)NS(C)(=O)=O)c(F)c4)(C4CCCC4)OC3=O)nc2n1` (centres unmarked) [A(29), N-{1-[4-(2-{2-cyclopentyl-5-[(5,7-dimethyl[1,2,4]triazolo[1,5-a]pyrimidin-2-yl)methyl]-4-hydroxy-6-oxo-3,6-dihydro-2H-pyran-2-yl}ethyl)-2-fluorophenyl]-1-methylethyl}methanesulfonamide], with 0.017 µM; and `Cc1c(CC2=C(O)CC(CCc3ccc(C(C)(C)C#N)c(F)c3)(C3CCCC3)OC2=O)c(=O)n(-c2ccccc2)n1C` (centres unmarked) [A(100), 2-[4-(2-{2-Cyclopentyl-5-[(1,5-dimethyl-3-oxo-2-phenyl-2,3-dihydro-1H-pyrazol-4-yl)methyl]-4-hydroxy-6-oxo-3,6-dihydro-2H-pyran-2-yl}ethyl)-2-fluorophenyl]-2-methylpropanenitrile], with 0.079 µM.
For `CCc1cc(CCC2(C3CCCC3)CC(=O)CC(=O)O2)ccc1CC#N` (centres unmarked) [A(102), {4-[2-(2-Cyclopentyl-4,6-dioxotetrahydro-2H-pyran-2-yl)ethyl]-2-ethylphenyl}acetonitrile], the IC50 came out at 0.84 µM.
Take `CCOc1cnc(CC)cc1CCC1(C2CCCC2)CC(O)=C(Cc2nc3ncc(C)cn3n2)C(=O)O1` (single isomer, unassigned) [A(55), 6-Cyclopentyl-6-[2-(5-ethoxy-2-ethylpyridin-4-yl)ethyl]-4-hydroxy-3-[(6-methyl[1,2,4]triazolo[1,5-a]pyrimidin-2-yl)methyl]-5,6-dihydro-2H-pyran-2-one]: the IC50 was 0.002 µM.
The figure for `Cc1cc(C)n2nc(CC3=C(O)CC(CCc4ccc([C@@H](C)NS(C)(=O)=O)cc4)(C4CCCC4)OC3=O)nc2n1` (some centres unmarked) [A(83)] is 0.038 µM; for `CS(=O)(=O)c1ccc(CCC2(C3CCCC3)CC(=O)CC(=O)O2)cc1F` (centres unmarked) [A(63), 6-Cyclopentyl-6-{2-[3-fluoro-4-(methylsulfonyl)phenyl]ethyl}dihydro-2H-pyran-2,4(3H)-dione] it is 18.5 µM.
The figure for `Cc1cnc2nc(CC3=C(O)CC(CCc4cc(F)c(C(C)(C)C#N)cc4O)(C4CCCC4)OC3=O)nn2c1` (centres unmarked) [A(79), 2-[4-(2-{2-Cyclopentyl-4-hydroxy-5-[(6-methyl[1,2,4]triazolo[1,5-a]pyrimidin-2-yl)methyl]-6-oxo-3,6-dihydro-2H-pyran-2-yl}ethyl)-2-fluoro-5-hydroxyphenyl]-2-methylpropanenitrile] is 0.012 µM; for `CCOc1cc(O)c(CC)cc1CCC1(C2CCCC2)CC(O)=C(Cc2nc3ncc(C)cn3n2)C(=O)O1` (centres unmarked) [A(26), 6-Cyclopentyl-6-[2-(2-ethoxy-5-ethyl-4-hydroxyphenyl)ethyl]-4-hydroxy-3-[(6-methyl[1,2,4]triazolo[1,5-a]pyrimidin-2-yl)methyl]-5,6-dihydro-2H-pyran-2-one] it is 0.004 µM; for `CCc1ccc(OC)c(CCC2(C3CCCC3)CC(=O)CC(=O)O2)n1` (centres unmarked) [A(5), 6-Cyclopentyl-6-[2-(6-ethyl-3-methoxypyridin-2-yl)ethyl]dihydro-2H-pyran-2,4(3H)-dione] it is 8.6 µM.
With `CCc1cc(CCC2(C3CCCC3)CC(O)=C(Cc3nc4nc(C)cc(C)n4n3)C(=O)O2)ccc1CN(C)C` (racemic) [A(119), 6-cyclopentyl-6-(2-{4-[(dimethylamino)methyl]-3-ethylphenyl}ethyl)-3-[(5,7-dimethyl[1,2,4]triazolo[1,5-a]pyrimidin-2-yl)methyl]-4-hydroxy-5,6-dihydro-2H-pyran-2-one], the IC50 is 0.01 µM.
Then `COC(=O)c1ccc(CCC2(C3CCCC3)CC(=O)CC(=O)O2)cc1F` (centres unmarked) [B(5), Methyl 4-[2-(2-cyclopentyl-4,6-dioxotetrahydro-2H-pyran-2-yl)ethyl]-2-fluorobenzoate], with 22 µM.
On to `Cc1cc(C)n2nc(CC3=C(O)CC(CCc4ccc(C(=O)O)c(F)c4)(C4CCCC4)OC3=O)nc2n1` (centres unmarked) [B(11), 4-(2-{2-Cyclopentyl-5-[(5,7-dimethyl[1,2,4]triazolo[1,5-a]pyrimidin-2-yl)methyl]-4-hydroxy-6-oxo-3,6dihydro-2H-pyran-2-yl}ethyl)-2-fluorobenzoic acid], for which the IC50 worked out at 0.26 µM.
On to `Cc1cc(C)n2nc(CC3=C(O)CC(CCc4ccc(S(C)(=O)=O)c(C(F)(F)F)c4)(C4CCCC4)OC3=O)nc2n1` (centres unmarked) [B(4), 6-Cyclopentyl-3-[(5,7-dimethyl[1,2,4]triazolo[1,5-a]pyrimidin-2-yl)methyl]-4-hydroxy-6-{2-[4-(methylsulfonyl)-3-(trifluoromethyl)phenyl]ethyl}-5,6-dihydro-2H-pyran-2-one], for which the IC50 stood at 0.006 µM.
Then `CCc1cc(CCC2(C3CCCC3)CC(O)=C(Cc3nc4nc(C)cc(C)n4n3)C(=O)O2)ccc1CNCC1CC1` (centres unmarked) [A(127), 6-Cyclopentyl-6-[2-(4-{[(cyclopropylmethyl)amino]methyl}-3-ethylphenyl)ethyl]-3-[(5,7-dimethyl[1,2,4]triazolo[1,5-a]pyrimidin-2-yl)methyl]-4-hydroxy-5,6-dihydro-2H-pyran-2-one], with 0.13 µM.
Then `Cc1cc(C)n2nc(CC3=C(O)CC(CCc4ccc([C@@H](C)NS(=O)(=O)CC(F)(F)F)cc4)(C4CCCC4)OC3=O)nc2n1` (stereo partly drawn) [A(82), N-{(1R)-1-[4(2-{2-cyclopentyl-5-[(5,7-dimethyl[1,2,4]triazolo[1,5-a]pyrimidin-2-yl)methyl]4-hydroxy-oxo-3,6dihydro-2H-pyran-2-yl}ethyl)phenyl]ethyl}-2,2,2-trifluoroethanesulfonamide], with 0.065 µM.
